Test results from patent publication US20110065919A1, “5-Substituted Indol-3-Carboxylic Acid Derivatives Exhibiting Antiviral Activity a Method for the Production and Use Thereof” (priority 2007, published 2011).
In brackets after ≈: the same amount, converted by molar mass. Like-named read-outs stand apart in the source and are kept apart here.

Assays:
[1] = tested on: influenza A/New Caledonia/20/99 (H1N1) virus reference strain; experiment: microbe, parasite or virus in culture; type: cell-based; conditions: for Activity at 10 μg/mL / specific activity in relation to influenza A virus reference strain (H1N1), in words / MIC50: MDCK cells; for MIC50: concentration inhibiting viral reproduction by 50%; for Chemotherapeutic Index: ratio of the MTC to the MIC50
[2] = tested on: influenza A/Aichi/2/69 (H3N3) virus; experiment: Murine influenza pneumonia model; type: in vivo, mice; conditions: for Mortality reduction: versus infected control; for Survived: number of mice surviving, n=10, 60 mg/kg/day
Method: (§1) 2. Determination of the efficacy of the compounds in the murine influenza pneumonia model.
(§2) The mice were infected intranasally under light ether anesthesia with the influenza A/Aichi/2/69 ([…]) virus. […] The efficacy of the action of the compounds in the influenza pneumonia model were assessed according to the number of mice surviving after infection with the virus and the increase in mean life span
(§3) The mean life span of the mice was calculated according to the following formula: MSD [mean survival day]=Σ(f(d−1)[…], where f is the number of mice dying on day d; the surviving mice were also included in f, and d in this case was 15; n is the number of mice in the group.

[3] = tested on: influenza A/Aichi/2/69 virus; experiment: Murine influenza pneumonia model; type: in vivo, mice; conditions: mean life span, 60 mg/kg/day, survivors counted with d=15
Method: as §1, §2, §3

[4] = tested on: MDCK tissue culture cells; experiment: Cytotoxic action, maximal tolerated concentration in MDCK tissue culture cells

Row | Compound | efficacy at 10 μg/mL compared with arbidol, in words [1] | Activity at 10 μg/mL [1] | specific activity in relation to influenza A virus reference strain (H1N1), in words [1] | MIC50 [1] | Chemotherapeutic Index [1] | Mortality ([2]; 60 mg/kg/day) | chemotherapeutic action compared with arbidol, in words ([2]; 60 mg/kg/day) | Mortality reduction ([2]; 60 mg/kg/day) | Survived [2] | Life Span [3] | MTC of the Compounds [4] | MIC50 ([1]; Influenza A virus, H1N1, read-out: MIC50)
1 | 1-{6-Bromo-1-methyl-5-methoxy-2-(phenylthio)methyl-1-H-indol-3-yl}-benzylpiperazine | inferior to arbidol in efficacy | 64.4 | high specific activity | 5.8 µg/mL | 6.9 | 20% | not inferior to arbidol | 61% | 8 | 13.1 days | 40 µg/mL | 
2 | CCOC(=O)c1c(CSc2ccccc2)n(C)c2cc(Br)c(O)c(CN(C)C)c12 [Arbidol, 1-methyl-2-phenylthiomethyl-3-carbethoxy-4-dimethylaminomethyl-5-hydroxy-6-bromindol, reference compound] |  | 100.0 |  |  | 6.7 | 20% |  | 61% | 8 | 12.2 days | 40 µg/mL | 6 µg/mL (≈ 12.6 µM)
3 | COc1cc2c(C(=O)N3CCCC3)c(CSc3ccccc3)n(C)c2cc1Br [B] | did not differ from it | 100.0 | high specific activity | 2.0 µg/mL (≈ 4.35 µM) | 7.5 |  |  |  |  |  | 15 µg/mL | 
4 | COc1cc2c(C(=O)N3CCCCC3)c(CSc3ccccc3)n(C)c2cc1Br [C] |  | 52.1 | low activity | 9.2 µg/mL (≈ 19.4 µM) | 2.7 |  |  |  |  |  | 25 µg/mL | 
